In this assay the test system is Rat Chronic Constriction Injury Model. Particulars: 0.02 mg/kg/day subcutaneously; compared to unloaded polymer depots; FIG. 4.

Description: The inventors evaluated the efficacy of a five Month Clonidine/Polymer Drug Depot in the Rat Chronic Constriction Injury Model. The animal model was the Bennett Model (Wistar rat). The purpose: To determine whether a five month polymer clonidine-eluting depot can improve pain associated behavioral responses in a rat model of neuropathic pain.
Experimental Design: Four loose chromic gut ligatures, 1 mm apart, were tied around the common sciatic nerve at mid-thigh. Each animal received treatment of test or control article—according to the dosing described in Table 5.
The inventors have conducted the present study for a period of 64 days and have employed the following two tests: (1) the Hargreaves test; and (2) the von Frey test. The Hargreaves Tests of Thermal Hyperalgesia were conducted on days 7, 14, 21, 28, 35, 42, 49, 56 and 63. The von Frey monofilament test of mechanical allodynia (performed the day following Thermal testing) were conducted on days-8, 15, 22, 29, 36, 43, 50, 57 and 64.

`Clc1cccc(Cl)c1N=C1NCCN1` [clonidine, 2,6-dichloro-N-2-imidazolidinyldenebenzenamine]: the “pain behavioral response (measured as a percentage of baseline) for mechanical allodynia” value is listed as “reduced the behavioral response”.

Values taken from patent US9351959B2, “Alpha adreneric receptor agonists for treatment of degenerative disc disease” (WARSAW ORTHOPEDIC INC., priority 2008, dated 2016).
